According to patent US20180087079A1, “METHODS OF USING CELL-CYCLE INHIBITORS TO MODULATE ONE OR MORE PROPERTIES OF A CELL CULTURE” (AMGEN INC., priority 2013, published 2018):

Tests used:
CDK4/Cyclin D1 = molecular target: T1, CDK4/Cyclin D1 (Homo sapiens, UniProt P11802); assay: CDK4 filtration kinase assay; type: biochemical; settings: CDK4/Cyclin D1, Rb fragment substrate, [33P]-ATP
T1 construct: purchased Cell Signaling Technology
Method: The CDK4 inhibitory activity of the cell cycle inhibitors was determined with a filtration kinase assay. The compounds, kinase and substrate diluted in the kinase buffer (20 mM Tris, pH7.4, 50 mM NaCl, 1 mM DTT, 0.1% BSA) were sequentially added to a 96-well Multiscreen HTS filtration plate (Millipore). The final 100 μL reaction mixture in each well contained 0.3 μg of CDK4/Cyclin D1 (Cell Signaling Technology), 1 μg of Rb fragment (aa773-928, Millipore) for the CDK4 assay and 1 μCi of [^33P]-ATP. The mixture was incubated at room temperature for 1 hour. The proteins in the reaction were then precipitated and washed with cold TCA solution using an aspiration/filtration vacuum system. The plates were dried at room temperature, and the retained radioactivity was measured by scintillation counting. IC50 values of the compounds in the above assays were determined by non-linear regression analysis using Prism (GraphPad Software).

[1] = system: transfected CHO cells expressing recombinant human monoclonal antibody (cell line 1); assay: 24-deep well culture, cell line 1: VCD, viability, titer, qP; type: cell-based, Chinese hamster; settings: for Titer / VCD / Viability / qP: Cell Line 1; for effect on viability / growth arrest: summary of Table 2
Method: Transfected CHO cells expressing a recombinant human monoclonal antibody (mAb) are cultured in 24-deep well plates with seeding density at 1×10^7/mL for five days. At certain time periods, samples of the cultures are taken and evaluated for viable cell density (VCD; expressed in 10^6 cells/mL); percent viability (as determined by trypan blue exclusion); titer of recombinant protein (expressed in grams of protein per liter of culture, or g/L, as determined by Protein A affinity HPLC); qP, or specific productivity (expressed in picograms of recombinant protein per cell per day, or pg/c/d), the presence or absence of high molecular weight substances (usually an indicator of protein aggregation; expressed as % of the total protein); and the relative percentage of Mannose 5, a major intermediate glyco-form that attaches to N297 of the mAb. N-linked glycosylation has an impact on the tertiary structure of the antibody and may affect Fc mediated antibody effector functions. The majority of the human Fc glycans are complex biantennary structures with galactose as the prevalent terminal sugar. Immature glyco-forms, such as high-mannose glycol-forms (Man5-9), are of concern due to potential higher plasma clearance rate (as compared to the clearance rate of complex glycan linked mAbs).
Compounds are further evaluated essentially as described in Example 2 herein. Briefly, transfected CHO cells expressing recombinant human monoclonal antibody (mAb; two different cell lines expressing two different mAb, referred to as cell line 1 and cell line 2) are cultured in 24-deep well plates in the presence or absence of the compounds. At specified time points, samples of the cultures are taken and evaluated for viable cell density (VCD; expressed in 10^6 cells/mL); percent viability (as determined by any method known in the art); titer of recombinant protein (expressed in grams of protein per liter of culture, or g/L, as determined by Protein A affinity HPLC); qP, or specific productivity (expressed in picograms of recombinant protein per cell per day, or pg/c/d). Additional parameters measure include the presence or absence of high molecular weight substances (usually an indicator of protein aggregation; expressed as % of the total protein); and the relative percentage of Mannose 5. For comparison purposes, Compounds A and B, which had been previously tested, were tested again.

Colo205 = assay: [14C]-thymidine incorporation cell proliferation inhibition assay; type: cell-based; settings: Homo sapiens, COLO 205, 72 hour incubation
Method: The cell proliferation inhibition potency of the cell cycle inhibitors was determined by using a [^14C]-thymidine incorporation assay. Exponentially growing cells (Colo205) were seeded in a 96-well Cytostar T plate (GE Healthcare Biosciences) at a density of 5×10^3 cells/well and incubated overnight. Serially diluted compounds and 0.1 μCi of [^14C]-thymidine (GE Healthcare Biosciences) were added to each well on the following day. After 72 hour incubation, isotope incorporation was determined with a β plate counter (Wallac). IC50 values of the compounds in the above assays were determined by non-linear regression analysis using Prism (GraphPad Software).

T1 sequence (P11802 whole entry, species assumed, the tested form may be a part): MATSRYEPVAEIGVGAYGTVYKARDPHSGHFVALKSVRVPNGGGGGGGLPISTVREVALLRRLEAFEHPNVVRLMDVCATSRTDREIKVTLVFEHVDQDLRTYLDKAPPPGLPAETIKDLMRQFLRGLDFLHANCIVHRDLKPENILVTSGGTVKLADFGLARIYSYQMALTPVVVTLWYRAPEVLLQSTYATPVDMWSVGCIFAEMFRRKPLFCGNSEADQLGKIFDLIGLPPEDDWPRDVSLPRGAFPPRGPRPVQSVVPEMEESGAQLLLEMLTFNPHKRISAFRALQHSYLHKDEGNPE
T1 sequence (P24385 whole entry partner, species assumed, the tested form may be a part): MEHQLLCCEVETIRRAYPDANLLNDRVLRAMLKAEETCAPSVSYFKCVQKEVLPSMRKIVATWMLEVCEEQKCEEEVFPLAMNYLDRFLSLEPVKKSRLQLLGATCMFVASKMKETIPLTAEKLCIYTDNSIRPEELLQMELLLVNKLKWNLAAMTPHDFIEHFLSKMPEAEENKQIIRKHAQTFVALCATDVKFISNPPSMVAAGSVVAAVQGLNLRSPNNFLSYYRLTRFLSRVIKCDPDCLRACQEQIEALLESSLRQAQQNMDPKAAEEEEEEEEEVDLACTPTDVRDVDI

`CN(C)C1CCN(c2ccc(Nc3ncc4c5ccncc5n(C5CCCC5)c4n3)nn2)CC1` [Compound C, 9-cyclopentyl-N-(6-(4-(dimethylamino)piperidin-1-yl)pyridazin-3-yl)-9H-pyrido[4′,3′:4,5]pyrrolo[2,3-d]pyrimidin-2-amine] was tested, and the IC50 (CDK4/Cyclin D1) was 3.17 nM, the Titer ([1]; 10 microM, D 1) was 0.48 g/L and the VCD ([1]; 10 microM, D 1) was 10.72 e6/mL. It also gave a Viability ([1]; 10 microM, D 1) of 94.37%, a qP ([1]; 10 microM, D 1) of 44.45 pg/c/d and a Titer ([1]; 10 microM, D 2) of 0.70 g/L. The VCD ([1]; 10 microM, D 2) was 8.77 e6/mL, the Viability ([1]; 10 microM, D 2) was 82.97% and the qP ([1]; 10 microM, D 2) was 79.79 pg/c/d. For the same compound, the Titer ([1]; 10 microM, D 3) was 0.94 g/L, the VCD ([1]; 10 microM, D 3) was 10.83 e6/mL and the Viability ([1]; 10 microM, D 3) was 84.46%. The qP ([1]; 10 microM, D 3) was 86.83 pg/c/d, the Titer ([1]; 10 microM, D 4) was 1.21 g/L and the VCD ([1]; 10 microM, D 4) was 12.18 e6/mL. For the same compound, the Viability ([1]; 10 microM, D 4) was 78.70%, the qP ([1]; 10 microM, D 4) was 99.64 pg/c/d and the Titer ([1]; 20 microM, D 1) was 0.48 g/L. The VCD ([1]; 20 microM, D 1) was 11.00 e6/mL, the Viability ([1]; 20 microM, D 1) was 94.55% and the qP ([1]; 20 microM, D 1) was 43.31 pg/c/d. The Titer ([1]; 20 microM, D 2) was 0.67 g/L, the VCD ([1]; 20 microM, D 2) was 8.28 e6/mL and the Viability ([1]; 20 microM, D 2) was 80.00%. The qP ([1]; 20 microM, D 2) was 80.51 pg/c/d, the Titer ([1]; 20 microM, D 3) was 0.85 g/L and the VCD ([1]; 20 microM, D 3) was 9.22 e6/mL. For the same compound, the Viability ([1]; 20 microM, D 3) was 78.87%, the qP ([1]; 20 microM, D 3) was 91.80 pg/c/d and the Titer ([1]; 20 microM, D 4) was 1.10 g/L. The VCD ([1]; 20 microM, D 4) was 10.18 e6/mL, the Viability ([1]; 20 microM, D 4) was 74.13% and the qP ([1]; 20 microM, D 4) was 108.01 pg/c/d. For the same compound, the effect on viability [1] was “greater (but still modest) decreases in viability”, the growth arrest [1] was “more sustained growth arrest” and the IC50 (Colo205) was 17.1 nM.

`CC1CCC(n2c3cnccc3c3cnc(Nc4ccc(N5CCNC(C)C5)nn4)nc32)CC1` (stereo not shown) [Compound D, 9-(4-methylcyclohexyl)-N-(6-(3-methylpiperazin-1-yl)pyridazin-3-yl)-9H-pyrido[4′,3′:4,5]pyrrolo[2,3-d]pyrimidin-2-amine] was tested, and the IC50 (CDK4/Cyclin D1) was 1.86 nM, the Titer ([1]; 2.5 microM, D 1) was 0.49 g/L and the VCD ([1]; 2.5 microM, D 1) was 11.85 e6/mL. The Viability ([1]; 2.5 microM, D 1) was 95.50%, the qP ([1]; 2.5 microM, D 1) was 41.37 pg/c/d and the Titer ([1]; 2.5 microM, D 2) was 0.73 g/L. The VCD ([1]; 2.5 microM, D 2) was 10.72 e6/mL, the Viability ([1]; 2.5 microM, D 2) was 87.30% and the qP ([1]; 2.5 microM, D 2) was 67.79 pg/c/d. The Titer ([1]; 2.5 microM, D 3) was 0.98 g/L, the VCD ([1]; 2.5 microM, D 3) was 11.11 e6/mL and the Viability ([1]; 2.5 microM, D 3) was 84.83%. For the same compound, the qP ([1]; 2.5 microM, D 3) was 87.94 pg/c/d, the Titer ([1]; 2.5 microM, D 4) was 1.27 g/L and the VCD ([1]; 2.5 microM, D 4) was 14.71 e6/mL. For the same compound, the Viability ([1]; 2.5 microM, D 4) was 82.00%, the qP ([1]; 2.5 microM, D 4) was 86.32 pg/c/d and the Titer ([1]; 5 microM, D 1) was 0.49 g/L. For the same compound, the VCD ([1]; 5 microM, D 1) was 11.76 e6/mL, the Viability ([1]; 5 microM, D 1) was 95.92% and the qP ([1]; 5 microM, D 1) was 41.95 pg/c/d. The Titer ([1]; 5 microM, D 2) was 0.70 g/L, the VCD ([1]; 5 microM, D 2) was 10.17 e6/mL and the Viability ([1]; 5 microM, D 2) was 86.10%. The qP ([1]; 5 microM, D 2) was 69.17 pg/c/d, the Titer ([1]; 5 microM, D 3) was 0.87 g/L and the VCD ([1]; 5 microM, D 3) was 9.71 e6/mL. The Viability ([1]; 5 microM, D 3) was 79.43%, the qP ([1]; 5 microM, D 3) was 89.92 pg/c/d and the Titer ([1]; 5 microM, D 4) was 1.11 g/L. For the same compound, the VCD ([1]; 5 microM, D 4) was 11.94 e6/mL, the Viability ([1]; 5 microM, D 4) was 76.30% and the qP ([1]; 5 microM, D 4) was 92.69 pg/c/d. For the same compound, the Titer ([1]; 10 microM, D 1) was 0.49 g/L, the VCD ([1]; 10 microM, D 1) was 11.35 e6/mL and the Viability ([1]; 10 microM, D 1) was 94.69%. The qP ([1]; 10 microM, D 1) was 43.16 pg/c/d, the Titer ([1]; 10 microM, D 2) was 0.67 g/L and the VCD ([1]; 10 microM, D 2) was 9.65 e6/mL. It also gave a Viability ([1]; 10 microM, D 2) of 82.20%, a qP ([1]; 10 microM, D 2) of 69.81 pg/c/d and a Titer ([1]; 10 microM, D 3) of 0.86 g/L. For the same compound, the VCD ([1]; 10 microM, D 3) was 9.31 e6/mL, the Viability ([1]; 10 microM, D 3) was 76.69% and the qP ([1]; 10 microM, D 3) was 92.01 pg/c/d. For the same compound, the Titer ([1]; 10 microM, D 4) was 0.99 g/L, the VCD ([1]; 10 microM, D 4) was 10.04 e6/mL and the Viability ([1]; 10 microM, D 4) was 70.89%. For the same compound, the qP ([1]; 10 microM, D 4) was 98.63 pg/c/d, the effect on viability [1] was “minimal effects on viability” and the growth arrest [1] was “reasonably sustained growth arrest”. The IC50 (Colo205) was 29.9 nM.
